Reference: patent US20070207195A1, “Genetic Screening for Polymorphisms in Human Genes that Increase or Decrease Sensitivity to Toxic Agents” (Applied Genetics Incorporated Dermatics, priority 2004, published 2007)

Test system: NCI screening panel tumor cell lines
Test: Growth inhibition (GI50, sulforhodamine B) in NCI tumor cell line panel, correlated with polymorphic genotype
Assay type: cell-based, human
[1] = NOS3 t-786c, ratio of average GI(50) of genotypes, 48 h drug incubation

Procedure: The method tests a toxic agent over five 10-fold dilutions in cells for 48 hrs in a 5% CO2 atmosphere and 100% humidity. For most agents the highest concentration was 0.1 mM, but for the standard agents the highest well concentration depended on experience with the agent. DNA purified from each cell line was analyzed for SNPs at the alleles of interest. […] Cell suspensions were added to a microtiter plate and incubated for 24 h at 37° C. The drugs were added at concentrations spanning five 10-fold dilutions, and incubated for 48 h. The cells were assayed by staining the cells with sulforhodamine B, and a plate reader was used to read the optical densities. The results are expressed as a GI50 value, which is the drug concentration producing 50% growth inhibition, with correction for the cell count at time zero. […] The drug sensitivities for the polymorphs of each gene of interest were calculated in the following manner. For each drug, the average GI(50) for each polymorphic genotype was calculated, e.g., the GI(50) for the homozygous dominant, heterozygous and homozygous variant genotypes. Then the GI(50)s for all the drugs were analyzed among genotypes by nonparametric Friedman Repeated Measures ANOVA. In this test the GI(50) is only used for ranking among the genotypes for each drug, so errors due to sample size among genotypes are minimized. Statistical analysis of each pair of polymorphic genotypes was done by the Tukey-Kramer Multiple Comparison Test. Analysis of relative sensitivity of the genotypes to an individual drug was by parametric ANOVA. To determine the relative sensitivity of each pair of genotypes, the relative sensitivity to each drug was calculated by dividing the GI(50) of one genotype by the GI(50) of the other. The relative sensitivities for all the drugs were then averaged. For each pair of genotypes, we also calculated the percent of drugs in which one genotype was more sensitive than the other. […]

Compound	resistance of XRCC1 R399Q homozygous variant genotype versus homozygous dominant genotype (XRCC1 R399Q, single-drug analysis, p=0.045 Bonferroni adjusted multiple comparison test)	survival of NOS3 t-786c homozygous variant genotype relative to heterozygous genotype [1] [%]	survival of NOS3 t-786c homozygous variant genotype relative to homozygous dominant genotype [1] [%]
CC[C@]1(O)C[C@@H]2CN(CCc3c([nH]c4ccccc34)[C@@](C(=O)OC)(c3cc4c(cc3OC)N(C)[C@H]3[C@@](O)(C(=O)OC)[C@H](OC(C)=O)[C@]5(CC)C=CCN6CC[C@]43[C@@H]65)C2)C1 [vinblastine]	significantly more resistant	–	–
Nc1nc2nc[nH]c2c(=S)[nH]1 [thioguanine, Thioguanine]	–	35	68
